Structures can show the parent of a compound that is named as a salt.
The compounds below were run on primary forebrain neurons (assay: cells). Settings: rescreen, 12.5 μM, 24 h, vs DMSO wells.
Method: Primary forebrain cell culture and maintenance. Forebrains of P0 Mt or Mt/Ai14 pups without olfactory bulbs and meninges were collected and placed in ice cold Ca^2+ and Mg^2+ free HBSS supplemented with 2 μg/ml gentamicin, 25 mM D-glucose, 1 mM pyruvate and 20 mM HEPES. Brain tissue was digested with 0.6 mg/ml papain at 37° C. for 20 min. Forebrains were washed with plating media [Neurobasal (Gibco), 5% FBS, 4 mM GlutaMAX (Gibco), 2 μg/ml gentamicin]. The tissue was gently triturated, allowed to settle and the supernatant was filtered through a 40 μm mesh-sized cell strainer. Cells were centrifuged at 420×g for 4 min and resuspended in plating media. 15,000 cells per well were plated with 2×10^8 viral particles/ml onto black Greiner μClear (Cat #781946) or Ultra-Low Base Aurora with evaporation barrier (Cat #ABE201201B) 384-well plates (80 μl/well) pre-coated with poly-D-lysine for the primary screen and rescreen, respectively. Plating and media changes were performed using an automated Biomek FX^P liquid handling workstation. Four hr after plating, 75% of the plating media was replaced by feeding media [Neurobasal-A (Gibco), 4 mM GlutaMAX (Gibco), 2 μg/ml gentamicin, 2% B27 (Gibco)]. At DIV4, 50% of the media was exchanged with fresh feeding media supplemented with 16 μM 5-Fluoro-2′-deoxyuridine (FUdR) to prevent glial cell over-growth. At DIV8 and DIV12, additional 50% media changes were made without FUdR. Cells were maintained at 37° C. and 5% CO2; plates were topped with Breathe-Easy adhesive membranes (Greiner plates) to minimize evaporation.
Compounds and compound transfer.
Imaging. Images were captured using a GE Incell 6000 system (60× objective, 0.95 NA, 16-bit images) equipped with environmental control (37° C., 5% CO2). Mt-GFP (green channel) was imaged by confocal imaging (3 slices, Δz=0.7 μm, aperture=1.0 AU, λexc=488 nm, λem=515-535 nm). Cyto-tdTomato (red channel) and MitoTracker Orange (red channel) were imaged using confocal mode (3 slices, Δz=0.7 μm, aperture=1.0 AU, λexc=561 nm, λem=569-641 nm, MitoTracker Orange) or with widefield mode (Cyto-tdTomato). TMRM imaged for the co-localization experiments with Mt-GFP was imaged using the confocal mode (3 slices, […] aperture=1.0, λexc=488, λem=569-641 nm). For the live-dead assay, primary neurons were imaged with a 20× (widefield mode, NA 0.45) objective using λexc=561 nm and λem=569-641 nm for the propidium iodide stained dead cells (red channel), and λexc=488 nm and λem=515-535 nm for the fluorescein diacetate stained live cells (green channel). 10 fields were collected from each well, and 4 wells were imaged/condition in the live-dead assay. For all other experiments, 4 fields/well were imaged unless otherwise stated.
Automated data analysis pipeline. Most experiments utilized only Mt-GFP; some utilized both Mt-GFP and Cyto-tdTomato. The Z-projected images were preprocessed using a custom Fiji macro. For preprocessing of Mt-GFP images: background was subtracted (rolling ball, radius=3), images were median filtered (radius=1) and somatic mitochondria were removed. For removal of the somatic mitochondria, they were first segmented and then a somatic mitochondrial mask overlaid on the image.

Going from CCN(CC)CCOCCOC(=O)C(CC)(CC)c1ccccc1.O=C(O)CC(O)(CC(=O)O)C(=O)O [OXELAIDIN CITRATE] to OC(CCN1CCCCC1)(c1ccccc1)c1ccccc1 [PRIDINOL METHANESULFONATE], the “Dendritic Mt CA” value rises from 2.59 robust Z-scores to 2.86 robust Z-scores.

CN1CCC(=C2c3ccccc3Sc3ccccc32)CC1 [PIMETHIXENE MALEATE] was tested, and the “Dendritic Mt CA” value was 2.57 robust Z-scores.

Going from CCN(CC)CCOCCOC(=O)C(CC)(CC)c1ccccc1.O=C(O)CC(O)(CC(=O)O)C(=O)O [OXELAIDIN CITRATE] to OC(CCN1CCCCC1)(c1ccccc1)c1ccccc1 [PRIDINOL METHANESULFONATE], the “Neurite Area” value rises from −1.31 robust Z-scores to 1.80 robust Z-scores.

CN1CCC(=C2c3ccccc3Sc3ccccc32)CC1 [PIMETHIXENE MALEATE] was tested, and the “Neurite Area” value was −2.10 robust Z-scores.

These compounds were tested on primary neurons (assay: TMRM fluorescence assay of inner mitochondrial membrane potential (ΔΨm)). Settings: 12.5 μM, 4 h.

With Cc1ccc(-c2cc(C(F)(F)F)nn2-c2ccc(S(N)(=O)=O)cc2)cc1 [celecoxib] the “hit in TMRM primary screen when assayed at 4 h” value was “celecoxib*”.

Same assay, conditions: Mus musculus, Primary neuron, read-out: TMRM (Effect-size)

Compared with OC(CCN1CCCCC1)(c1ccccc1)c1ccccc1 [PRIDINOL METHANESULFONATE], Cc1ccc(-c2cc(C(F)(F)F)nn2-c2ccc(S(N)(=O)=O)cc2)cc1 [celecoxib] is higher in Emax: 20.6% for the first, 27.5% for the second.

In the case of CCCCOc1cc(C(=O)OCCN(CC)CC)ccc1N [benoxinate hydrochloride], the Emax is reported as 21%.

Same assay, conditions: Mus musculus, Primary neuron, read-out: TMRM-EC50

OC(CCN1CCCCC1)(c1ccccc1)c1ccccc1 [PRIDINOL METHANESULFONATE] and Cc1ccc(-c2cc(C(F)(F)F)nn2-c2ccc(S(N)(=O)=O)cc2)cc1 [celecoxib] are within 1.5-fold of each other in EC50: 3.9 µM for the first, 5.18 µM for the second.

Compound CCCCOc1cc(C(=O)OCCN(CC)CC)ccc1N [benoxinate hydrochloride] has an EC50 of 0.49 µM.

Same assay, conditions: primary screen, 12.5 μM, 24 h

First: CCN(CC)CCOCCOC(=O)C(CC)(CC)c1ccccc1.O=C(O)CC(O)(CC(=O)O)C(=O)O [OXELAIDIN CITRATE]
Second: CCCCOc1cc(C(=O)OCCN(CC)CC)ccc1N [benoxinate hydrochloride]
The “TMRM Primary” value of the first is higher: 4.27 Z-scores for the first, 3.62 Z-scores for the second.

First: CN1CCC(=C2c3ccccc3Sc3ccccc32)CC1 [PIMETHIXENE MALEATE]
Second: OC(CCN1CCCCC1)(c1ccccc1)c1ccccc1 [PRIDINOL METHANESULFONATE]
The “TMRM Primary” value of the first is lower: 3.95 Z-scores for the first, 5.88 Z-scores for the second.

Cc1ccc(-c2cc(C(F)(F)F)nn2-c2ccc(S(N)(=O)=O)cc2)cc1 [celecoxib] was tested, and the “TMRM Primary” value was 6.67 Z-scores.

Same assay, conditions: rescreen, 24 h

First: CCN(CC)CCOCCOC(=O)C(CC)(CC)c1ccccc1.O=C(O)CC(O)(CC(=O)O)C(=O)O [OXELAIDIN CITRATE]
Second: CCCCOc1cc(C(=O)OCCN(CC)CC)ccc1N [benoxinate hydrochloride]
The “TMRM Rescreen” value of the first is lower: 6.44 Z-scores for the first, 6.64 Z-scores for the second.

Going from CN1CCC(=C2c3ccccc3Sc3ccccc32)CC1 [PIMETHIXENE MALEATE] to OC(CCN1CCCCC1)(c1ccccc1)c1ccccc1 [PRIDINOL METHANESULFONATE], the “TMRM Rescreen” value rises from 5.12 Z-scores to 6.92 Z-scores.

Cc1ccc(-c2cc(C(F)(F)F)nn2-c2ccc(S(N)(=O)=O)cc2)cc1 [celecoxib] was tested, and the “TMRM Rescreen” value was 4.72 Z-scores.

Each compound was assayed on primary neurons (assay: CellTiter-Glo luminescence-based ATP assay). Settings: ATP orthogonal screen, 24 h.
Assay type: cell-based, mouse
How it was run: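 Primary neurons treated from DIV13 for 24 h with compound or DMSO. After part of the medium was removed, CellTiter-Glo reagent was added; plates were shaken 10 min at 200 rpm, kept 2 min in the dark at room temperature, and luminescence read as total ATP.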

First: CCN(CC)CCOCCOC(=O)C(CC)(CC)c1ccccc1.O=C(O)CC(O)(CC(=O)O)C(=O)O [OXELAIDIN CITRATE]
Second: CCCCOc1cc(C(=O)OCCN(CC)CC)ccc1N [benoxinate hydrochloride]
The ATP of the first is lower: 2.73 Z-scores for the first, 5.57 Z-scores for the second.

First: CN1CCC(=C2c3ccccc3Sc3ccccc32)CC1 [PIMETHIXENE MALEATE]
Second: OC(CCN1CCCCC1)(c1ccccc1)c1ccccc1 [PRIDINOL METHANESULFONATE]
The ATP of the first is lower: 4.56 Z-scores for the first, 5.46 Z-scores for the second.

Cc1ccc(-c2cc(C(F)(F)F)nn2-c2ccc(S(N)(=O)=O)cc2)cc1 [celecoxib] gave an ATP of 7.57 Z-scores.

Same assay, conditions: Mus musculus, Primary neuron; dose response, 15 concentrations from 6 nM to 100 uM

Compared with OC(CCN1CCCCC1)(c1ccccc1)c1ccccc1 [PRIDINOL METHANESULFONATE], Cc1ccc(-c2cc(C(F)(F)F)nn2-c2ccc(S(N)(=O)=O)cc2)cc1 [celecoxib] is 3.4-fold lower in EC50: 1.65 µM for the first, 0.49 µM for the second.

Compound CCCCOc1cc(C(=O)OCCN(CC)CC)ccc1N [benoxinate hydrochloride] has an EC50 of 0.08 µM.

Same assay, conditions: Mus musculus, Primary neuron; maximal percent increase relative to in-plate DMSO controls, dose response; read-out: ATP (Effect-size)

First: OC(CCN1CCCCC1)(c1ccccc1)c1ccccc1 [PRIDINOL METHANESULFONATE]
Second: Cc1ccc(-c2cc(C(F)(F)F)nn2-c2ccc(S(N)(=O)=O)cc2)cc1 [celecoxib]
The Emax of the first is lower: 15.7% for the first, 20.7% for the second.

CCCCOc1cc(C(=O)OCCN(CC)CC)ccc1N [benoxinate hydrochloride] was tested, and the Emax was 21.4%.

The compounds below were run on primary neurons (assay: Mitochondrial morphology and neurite area after functional modulators). Settings: significant change.
Assay type: cell-based, mouse
Set-up: key to Neurite Area: non-significant (n.s.)
Method: Mitochondrial morphology and neurite area measurements. Mitochondrial morphology and neurite area were quantified using methods described by Varkuti et al, 2020. Briefly, Cre-dependent mitochondrial targeted GFP2 (mito-GFP) ROSA26 knock-in mice were crossed with Ai14 (007908, The Jackson Laboratory) expressing cytosolic-tdTomato, and the forebrain of P0 pups were isolated and primary neurons were cultured as described above. AAV9 virus containing the iCRE sequence driven by the neuron specific CaMKII promoter was added to the cell culture at plating and 75% of the media replaced 4 h after plating. […] Z-projected images of the green channel were preprocessed (background subtraction: rolling ball, radius=3; median filtering: radius=1) and somatic mitochondria were removed (see details in Varkuti et al, Science Advances 6 (2020) eaaw8702). Red channel images were also preprocessed (tubeness filter, soma removal). Preprocessed images were segmented by GE Developer software (object-based, kernel size: 3). […] The length and circularity measurements for mitochondria were aggregated using the median and the area for neurites using the sum. After removing empty fields and outlier values from the fields, aggregated field values were averaged to well values (4 fields/well, 12 wells/compound). Robust Z-scores were calculated using DMSO-treated wells for each well ((mediancompound−medianDMSO)/median absolute deviationDMSO), well values were averaged for each compound.
A high-content assay was developed in parallel to monitor aspects of mitochondrial dynamics in primary cultured neurons that conditionally express (Cre recombinase dependent) mitochondrial-tagged GFP and cytosolic tdTomato reporters (Varkuti et al., 2020). We monitored two aspects of neuritic mitochondrial dynamics: (1) the health of mitochondria as measured by the average circularity of axonal mitochondria, since defective mitochondria targeted for mitophagy become circular in shape, and (2) the balance between fission/fusion measured by the average length of dendritic mitochondria. […] FIG. 19A illustrates the results of surveying a collection of functional modulators selected from 5 different structural clusters (FIG. 17), quantified as robust z-scores relative to DMSO-treated control neurons.

CCCCOc1cc(C(=O)OCCN(CC)CC)ccc1N [benoxinate hydrochloride] was tested, and the “Mitochondrial Morphology” value was “elongated”.

For CCCCOc1cc(C(=O)OCCN(CC)CC)ccc1N [benoxinate hydrochloride], the “Neurite Area” value was “n.s”.
With Cc1ccc(-c2cc(C(F)(F)F)nn2-c2ccc(S(N)(=O)=O)cc2)cc1 [celecoxib] the “Neurite Area” value was “n.s”.

These compounds were tested on primary neurons (assay: not given). Settings: not given.

“Aβ(1-40): less-toxic oligomeric amyloid-β peptide used as control” was tested, and the “mitochondrial fragmentation caused by oligomeric peptide” value was “failed to cause mitochondrial fragmentation”.

Reference: US20230003721A1, “MITOTHERAPEUTICS FOR THE TREATMENT OF BRAIN DISORDERS” (The University of Florida Research Foundation, Inc., priority 2019, published 2023)
